Assay results: patent publication EP1674466A1, “2,5- and 2,6-disubstituted benzazole analogues useful as protein kinase inhibitors” (4SC AG, priority 2004, dated 2006)

Biological target: at least one kinase selected from Aurora A, Aurora B, EGF-R, ERBB2, PDGFR, IGF1-R, VEGF-R2, VEGF-R3, EPHB4, Tie2, and SRC
Test: 33PanQinase Activity Assay (protein kinase assay)
Assay type: biochemical
Conditions: on at least one kinase of the listed panel, or on at least two kinases from at least two different molecular mechanisms of tumor progression; recombinant human kinases, 1 µM ATP
Experimental: The effect of the benzazole derivatives was tested on recombinant, human protein kinases. All protein kinases were expressed in Sf9 insect cells as human recombinant GST-fusion proteins or as His-tagged proteins by means of the baculovirus expression system. Protein kinases were purified by affinity chromatography using either GSH-agarose or Ni-NTH-agarose. The purity and identity of each was checked by SDS-PAGE/silver staining and by western blot analysis with specific antibodies. A proprietary protein kinase assay (^33PanQinase® Activity Assay) was used for measuring the kinase activity. All kinase assays were performed in 96-well FlashPlates™ in a 50 µl reaction volume. The assay for all enzymes contained 60 mM HEPES-NaOH, pH 7.5, 3 mM MgCl2, 3 mM MnCl2, 3 µM Na-orthovanadate, 1.2 mM DTT, 50 µg/ml PEG20000 and 1 µM [γ-^33P]-ATP (approx. 5x10^5 cpm per well). The reaction cocktails were incubated at 30°C for 80 minutes. The reaction was stopped with 50 µl of 2% (v/v) H3PO4, plates were aspirated and washed two times with 200 µl of 0.9% (w/v) NaCl. Incorporation of ^33Pi was determined with a microplate scintillation counter. All assays were performed with a BeckmanCoulter/ Sagian robotic system.

| IC50 | SMILES |
| --- | --- |
| < 500 nM | COc1cc2ncnc(Nc3ccc4nc(NC(=O)c5ccccc5)sc4c3)c2cc1OC [Example 2, N-[6-(6,7-Dimethoxyquinazolin-4-ylamino)benzothiazol-2-yl]benzamide] |
| < 500 nM | COc1cc2c(Nc3ccc4nc(NC(=O)c5ccccc5)sc4c3)ncnc2cc1OCCCN1CCN(C)CC1 [Example 5, N-(6-{6-Methoxy-7-[3-(4-methylpiperazin-1-yl)propoxy]quinazolin-4-yl-amino}benzothiazol-2-yl)benzamide] |
| < 500 nM | COc1cc2ncnc(Nc3ccc4nc(NC(=O)c5ccccc5)oc4c3)c2cc1OC [Example 1, N-[6-(6,7-Dimethoxyquinazolin-4-ylamino)benzoxazol-2-yl]benzamide] |
| < 500 nM | O=C(Nc1nc2cc(Nc3ncnc4nc[nH]c34)ccc2s1)c1ccccc1 [Example 11, N-[5-(Purin-6-ylamino)benzothiazol-2-yl]benzamide] |
| < 500 nM | Cc1cc(Nc2ccnc(Nc3ccc4nc(NC(=O)c5ccccc5)sc4c3)n2)n[nH]1 [Example 9, N-{6-[4-(5-Methylpyrazol-3-ylamino)pyrimidin-2-ylamino]benzothiazol-2-yl}benzamide] |
